Test results: the NIST ThermoML archive (doi:10.1021/je901067c)

Legend:
[1] = refractive index (Na D-line) (dimensionless); xn = mol fraction of the nth substance listed; settings: 101 kPa, Liquid, Standard Abbe refractometry
[2] = xn = mol fraction of the nth substance listed; settings: 101 kPa, Liquid; for viscosity: Capillary tube (Ostwald / Ubbelohde) method

CCC(C)=O [butanone] + CCCCCO
Settings	mass density, 298.15 K [kg/m3]	mass density, 308.15 K [kg/m3]	mass density, 318.15 K [kg/m3]	refractive index, 298.15 K	refractive index, 308.15 K	refractive index, 318.15 K	viscosity, 298.15 K [mPa·s]	viscosity, 308.15 K [mPa·s]	viscosity, 318.15 K [mPa·s]
[1], x1 = 0.088	–	–	–	1.4049	1.4014	1.3976	–	–	–
[1], x1 = 0.1632	–	–	–	1.4031	1.3997	1.3957	–	–	–
[1], x1 = 0.2427	–	–	–	1.401	1.3976	1.3937	–	–	–
[1], x1 = 0.3549	–	–	–	1.3979	1.3943	1.3905	–	–	–
[1], x1 = 0.4434	–	–	–	1.3953	1.3914	1.3878	–	–	–
[1], x1 = 0.5597	–	–	–	1.3915	1.3873	1.3838	–	–	–
[1], x1 = 0.6518	–	–	–	1.3883	1.3838	1.3804	–	–	–
[1], x1 = 0.7401	–	–	–	1.3851	1.3804	1.377	–	–	–
[1], x1 = 0.8477	–	–	–	1.381	1.376	1.3724	–	–	–
[1], x1 = 0.9355	–	–	–	1.3776	1.3725	1.3686	–	–	–
[1], x1 = 1	–	–	–	1.375	1.37	1.3657	–	–	–
[2], x1 = 0.088	809.94	802.26	794.44	–	–	–	2.557	2.011	1.608
[2], x1 = 0.1632	809.15	801.25	793.21	–	–	–	1.997	1.616	1.321
[2], x1 = 0.2427	808.31	800.16	791.89	–	–	–	1.592	1.304	1.097
[2], x1 = 0.3549	807.11	798.62	789.99	–	–	–	1.202	1.009	0.852
[2], x1 = 0.4434	806.15	797.39	788.5	–	–	–	0.983	0.835	0.721
[2], x1 = 0.5597	804.87	795.76	786.5	–	–	–	0.773	0.667	0.585
[2], x1 = 0.6518	803.85	794.44	784.88	–	–	–	0.648	0.57	0.5
[2], x1 = 0.7401	802.85	793.14	783.31	–	–	–	0.554	0.492	0.443
[2], x1 = 0.8477	801.59	791.54	781.36	–	–	–	0.485	0.427	0.381
[2], x1 = 0.9355	800.55	790.21	779.73	–	–	–	0.42	0.38	0.345
[2], x1 = 1	799.76	789.21	778.52	–	–	–	0.391	0.361	0.334
